From patent US20240368115A1, “REGULATOR CONTAINING TRICYCLIC DERIVATIVE, PREPARATION METHOD THEREFOR AND APPLICATION THEREOF” (SHUJING BIOPHARMA CO., LTD, priority 2021, published 2024)

Legend:
[1] = biological target: T1, D2S receptor (Homo sapiens, UniProt P14416); experiment: D2S receptor cAMP agonist test; assay type: cell-based; conditions: HEK293 cell strain stably expressing D2S receptor
T1 construct: expressed in transfected cells

[2] = biological target: 5-HT2A receptor (Homo sapiens, UniProt P28223); experiment: Calcium flux test for 5-HT2A receptor; assay type: cell-based; conditions: CHO cell strain stably expressing 5-HT2A receptor
[3] = biological target: T2, D2L receptor (Homo sapiens, UniProt P14416); experiment: D2L receptor cAMP agonist test; assay type: cell-based; conditions: HEK293 cell strain stably expressing D2L receptor
T2 construct: expressed in transfected cells

[4] = Pharmacokinetic test in mice; assay type: in vivo; conditions: male, ICR, mouse, plasma, po, 5 mg/kg, oral intragastric, single dose 5 mg/kg
Procedure: Male ICR mice were administered orally intragastrically, the plasma concentrations of the compounds of the present invention were measured in the mice, the PK parameters were calculated, and the pharmacokinetic evaluation was performed on the compounds of the present invention.
• (1) Test samples: the compounds of the examples of the present invention, self-made. • (2) Test animals: ICR mice, SPF grade, male, Xuzhou Medical University. • (3) Main test instruments:
Drug preparation: according to the weight of the weighed drug, the preparation volume was calculated. 5% of DMSO was added firstly. After the drug was fully dissolved, 95% of 20% aqueous PB-cyclodextrin solution was then added, and the mixture was mixed well for later use.
Administration route: oral intragastric administration. Frequency and duration of administration: single administration.
ICR mice were stratified according to body weight and then randomly divided into groups of 9 mice each, and the mice were fasted overnight prior to the test. The mice were separately administered orally intragastrically. 50 μL of blood was collected from the fundus vein of the mouse at 0 h, 0.083 h, 0.25 h, 0.5 h, 1 h, 2 h, 4 h, 8 h, 12 h, and 24 h (3 time points for each mouse) to a sample tube containing heparin sodium as an anticoagulant, and the tube was placed in wet ice and centrifuged at 4000 r·min^−1 for 10 min. The plasma was separated, and cryopreserved in a refrigerator at −80° C. for testing.
The concentrations of plasma samples were measured by high performance liquid chromatography-tandem mass spectrometry (LC-MS/MS). The retention times of the compounds and internal standard, chromatogram acquisitions, and integrals of chromatograms were processed using the software Analyst (AB SCIEX), and the data statistics were processed using the software Watson LIMS (Thermo Fisher Scientific) or Analyst (AB SCIEX). The concentration of plasma was processed using a non-compartmental model of the pharmacokinetic software WinNonlin™ Version 6.3 (Pharsight, Mountain View, CA), and pharmacokinetic parameters were calculated by a linear log-trapezoidal method.

T1 sequence (P14416 1-414 isoform P14416-2): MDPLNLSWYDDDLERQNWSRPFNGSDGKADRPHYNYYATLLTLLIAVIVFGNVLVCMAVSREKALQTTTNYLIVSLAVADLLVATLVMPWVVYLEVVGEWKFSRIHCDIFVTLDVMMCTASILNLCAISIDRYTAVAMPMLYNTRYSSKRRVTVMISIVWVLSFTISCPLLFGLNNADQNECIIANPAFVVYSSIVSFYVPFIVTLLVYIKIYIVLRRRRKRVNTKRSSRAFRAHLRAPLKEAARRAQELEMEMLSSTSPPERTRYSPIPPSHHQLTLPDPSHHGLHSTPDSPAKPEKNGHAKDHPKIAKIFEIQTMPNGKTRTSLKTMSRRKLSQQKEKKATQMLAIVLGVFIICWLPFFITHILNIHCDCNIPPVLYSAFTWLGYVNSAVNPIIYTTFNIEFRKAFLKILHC
Sequence of 5-HT2A receptor (P28223 whole entry): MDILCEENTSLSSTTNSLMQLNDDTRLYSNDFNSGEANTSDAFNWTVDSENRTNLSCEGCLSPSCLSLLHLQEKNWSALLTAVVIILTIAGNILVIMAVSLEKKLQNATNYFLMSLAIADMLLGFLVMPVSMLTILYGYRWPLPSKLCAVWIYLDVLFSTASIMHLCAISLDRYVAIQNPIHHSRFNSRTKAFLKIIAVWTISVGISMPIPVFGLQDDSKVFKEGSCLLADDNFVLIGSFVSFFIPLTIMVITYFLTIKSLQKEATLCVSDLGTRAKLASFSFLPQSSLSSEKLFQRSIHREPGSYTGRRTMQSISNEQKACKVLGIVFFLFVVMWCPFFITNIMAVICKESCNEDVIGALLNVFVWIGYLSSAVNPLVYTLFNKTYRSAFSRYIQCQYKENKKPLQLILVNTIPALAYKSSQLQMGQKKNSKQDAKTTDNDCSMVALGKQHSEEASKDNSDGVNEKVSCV
T2 sequence (P14416 whole entry): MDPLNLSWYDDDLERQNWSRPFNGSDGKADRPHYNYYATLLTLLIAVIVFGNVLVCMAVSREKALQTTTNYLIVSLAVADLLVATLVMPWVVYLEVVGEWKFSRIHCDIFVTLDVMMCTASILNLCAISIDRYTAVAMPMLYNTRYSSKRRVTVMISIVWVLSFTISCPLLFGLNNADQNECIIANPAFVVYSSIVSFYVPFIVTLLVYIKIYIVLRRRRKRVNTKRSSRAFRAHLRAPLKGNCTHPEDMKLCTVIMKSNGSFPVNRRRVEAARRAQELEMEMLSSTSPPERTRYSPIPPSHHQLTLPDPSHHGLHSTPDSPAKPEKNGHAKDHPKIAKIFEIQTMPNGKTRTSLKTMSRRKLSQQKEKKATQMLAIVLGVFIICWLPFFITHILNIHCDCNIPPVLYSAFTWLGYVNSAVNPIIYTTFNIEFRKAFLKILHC

O=C1Nc2cc(OCCCCN3CCN(c4cccc(Cl)c4Cl)CC3)ccc2C2CC12 (stereo not drawn) [Example 1, 5-(4-(4-(2,3-Dichlorophenyl)piperazin-1-yl)butoxy)-3,7b-dihydro-1H-cyclopropa[c]quinolin-2(1aH)-one]
EC50 ([1]; cAMP, forskolin 5×10^−7 M): 0.97 nM | D2S Max Act % ([1]; positive control dopamine 1×10^−7 M): 114.9% | IC50 ([2]; calcium flux, antagonism of serotonin): 731 nM | 5-HT2A Max Inh % ([2]; positive control ketanserin 10^−7 M): 98.4% | EC50 ([3]; cAMP, forskolin 0.5 μM): 0.62 nM | D2L Max Act % ([3]; positive control dopamine 1 μM): 54.4% | half-life [4]: 10.8 h | AUC(0-inf) ([4]; read-out: AUC(0-inf)): 7160 ng·h/mL | Cmax ([4]; read-out: Cmax): 511 ng/mL
